Experimental data from the OligoGym collection.
These antisense oligonucleotides have a phosphorothioate backbone; sugars and methylation of C are not fully specified.

Biological target: GNA12
Settings: ASO
Further: test concentration or dose not given here.

First: GATATCTTGCTTACTAGG
Second: GTGGACTTGCCGCTCTCG
The remaining target (mRNA or protein) (fraction of control) of the first is lower: 0.37 for the first, ≥ 1 for the second.

Compared with GCGCCTTCTGGTCGAACT, GGGACGTACAGCTGGAAG is lower in remaining target (mRNA or protein) (fraction of control): 0.72 for the first, 0.53 for the second.

Going from GTGCATCAACAAGAACCC to GGAAGAGAATGATGGAGA, the remaining target (mRNA or protein) (fraction of control) rises from 0.89 to ≥ 1.

First: GGTGGAAGAGTGGCTTGC
Second: AGCATGATGTCCTTCAGG
The remaining target (mRNA or protein) (fraction of control) of the first is higher: 0.65 for the first, 0.29 for the second.

Going from CCCTGATGCCAGAATCCC to GCGCATCTGCTTGAGGAA, the remaining target (mRNA or protein) (fraction of control) rises from 0.39 to 0.82.

First: CACAATTCCCTTGGTGGC
Second: CAGCCGGTTGGTGCGCCT
The remaining target (mRNA or protein) (fraction of control) of the first is higher: ≥ 1 for the first, 0.25 for the second.

Going from AGCAGGCAGCGGCTGAGG to AATTCAGCTGGCCGATCC, the remaining target (mRNA or protein) (fraction of control) falls from 0.93 to 0.59.

Going from AGCCCTTGAGGATGTTGT to TTGTTGACGATGGTCTCG, the remaining target (mRNA or protein) (fraction of control) falls from 0.94 to 0.73.

First: GTGGTGAAGTGGTGGAAG
Second: CTCAGGGCCGGGACGTAC
The remaining target (mRNA or protein) (fraction of control) of the first is higher: 0.87 for the first, 0.77 for the second.

Compared with ACGTGGACTTGCCGCTCT, ACTAGGAAAGTAATTCAG is higher in remaining target (mRNA or protein) (fraction of control): 0.32 for the first, 0.47 for the second.

Going from AAGATGTTCATGGACTCC to GTCGTACTCGCTGGAGGA, the remaining target (mRNA or protein) (fraction of control) rises from 0.33 to 0.39.

Compared with CAGAATCCCTCCAGAGTG, TTAATAACGAAGTCATGC is higher in remaining target (mRNA or protein) (fraction of control): 0.37 for the first, 0.73 for the second.

First: CCTGAAGTCCGGGAAGTG
Second: GTCGATGTCGCGGCTACG
The remaining target (mRNA or protein) (fraction of control) of the first is lower: 0.85 for the first, ≥ 1 for the second.

Compared with GGTTCTCCTGCAGGATGG, CCGTCGAAGCACTGGAAC is lower in remaining target (mRNA or protein) (fraction of control): 0.93 for the first, 0.8 for the second.

Compared with CCGCTGGCCGCCCACATC, CTCCAGCAGCGCCTTCTG is higher in remaining target (mRNA or protein) (fraction of control): 0.47 for the first, ≥ 1 for the second.

First: GCTTGAGGAACGTGGACT
Second: CCATGCTTCTCATTTTCA
The remaining target (mRNA or protein) (fraction of control) of the first is lower: 0.31 for the first, 0.49 for the second.

Compared with GGTGCGCCTGTCCTCCAT, CTCGCGGCCGTGGATGAT is higher in remaining target (mRNA or protein) (fraction of control): 0.33 for the first, 0.99 for the second.

Compared with AGGATGTTGTCGAAGATG, CCCCGCCTTGTTCTCGAA is higher in remaining target (mRNA or protein) (fraction of control): 0.77 for the first, 0.85 for the second.

Compared with TCGAAGATGGTGTCGCGG, GGAAGTACTTCACCGACT is higher in remaining target (mRNA or protein) (fraction of control): 0.98 for the first, ≥ 1 for the second.

Compared with CTGAGGGTCCGCACCACC, ACTCGCTTCTCCGGCTGA is lower in remaining target (mRNA or protein) (fraction of control): ≥ 1 for the first, 0.85 for the second.

GTCCATCTTGTTGAGGAA and GGCAGCGGCTGAGGGTCC are the same in remaining target (mRNA or protein) (fraction of control): 0.68 for the first, 0.68 for the second.

Compared with TCCGGTCCAAGTTGTCCA, ATGATGGAGACGTTGAAG is higher in remaining target (mRNA or protein) (fraction of control): 0.88 for the first, ≥ 1 for the second.

First: CATGGAACACGAAGCGGA
Second: TCTGGTCGAACTCGCGGC
The remaining target (mRNA or protein) (fraction of control) of the first is lower: 0.57 for the first, 0.7 for the second.

Going from CGAAGGCCATCAGGAACA to TGGTCTCGAAGATGTTCA, the remaining target (mRNA or protein) (fraction of control) falls from ≥ 1 to 0.53.

Compared with CTTGGTGGCTTTCCTAGC, CTTATCTCGTGCATCAAC is lower in remaining target (mRNA or protein) (fraction of control): ≥ 1 for the first, 0.51 for the second.

Going from CCAGCAGCGCGTCGATGT to GGATGATGCGCATCTGCT, the remaining target (mRNA or protein) (fraction of control) rises from 0.29 to ≥ 1.

Going from GTTCCGTCTCTTCCTGTC to TCTTCTTAATAACGAAGT, the remaining target (mRNA or protein) (fraction of control) rises from 0.36 to 0.48.

Going from AGTGCTTCTTGATGCTCA to CTGGAACCACTTCTGGCG, the remaining target (mRNA or protein) (fraction of control) rises from 0.62 to 0.89.

First: AAGTCATGCTCCACAATT
Second: CATGAACAGGATGGACGT
The remaining target (mRNA or protein) (fraction of control) of the first is higher: 0.64 for the first, 0.5 for the second.

Going from TTCATGGACTCCACCAGC to GTTGAAGAAGAGCTTGTT, the remaining target (mRNA or protein) (fraction of control) falls from 0.57 to 0.33.

Going from GAAAGCCTCCCTGATGCC to TGTCGCGGAACTCCAGCA, the remaining target (mRNA or protein) (fraction of control) rises from 0.38 to 0.79.

Going from TCCATGAGGACCTGGTCG to CCGATCCGGTCCAAGTTG, the remaining target (mRNA or protein) (fraction of control) falls from 0.79 to 0.38.

ACTGCCAAGGAATGCCAA and CTGGAGGAGACCATGAAC cannot be ordered by remaining target (mRNA or protein) (fraction of control): ≥ 1 for the first, ≥ 1 for the second.

Compared with GCTCACGGTCTTCACCTT, CACCAGGAGGTCCATCTT is lower in remaining target (mRNA or protein) (fraction of control): ≥ 1 for the first, 0.75 for the second.

For CCTGTCGAAGCACTGGAC, the remaining target (mRNA or protein) (fraction of control) was 0.34.
